Measurements: patent US20220152523A1, “Cannabinoid Separation by Countercurrent Chromatography” (priority 2019, published 2022)
Where two headings read alike, the source gives them in different places.

[1] = solvent system SS 1: sec-BuOH-1% TFA/water (1:1)
[2] = solvent system SS 3: Hexane-acetone-acetonitrile (5:2:3)
[3] = solvent system SS 4: EtOAc-n-BuOH-water (2:1:3)
[4] = solvent system SS 5: EtOAc-n-BuOH-1% aq. TFA (2:1:3)
[5] = solvent system SS 6: Hexane-EtOAc-MeOH-water (6:1:6:1)
[6] = solvent system Sec-BuOH-water (1:1)

Row | SMILES | K, partition coefficient (ratio of upper phase to lower phase) [1] | K, partition coefficient (ratio of upper phase to lower phase) (solvent system SS 2: n-BuOH-1% aq. TFA (1:1)) | K, partition coefficient (ratio of upper phase to lower phase) [2] | K, partition coefficient (ratio of upper phase to lower phase) [3] | K, partition coefficient (ratio of upper phase to lower phase) [4] | K, partition coefficient (ratio of upper phase to lower phase) [5] | K, partition coefficient (ratio of upper phase to lower phase) [6] | K, partition coefficient (ratio of upper phase to lower phase) (solvent system n-BuOH-water (1:1))
1 | C=C(C)[C@@H]1CCC(C)=C[C@H]1c1c(O)cc(CCCCC)cc1O [CBD, cannabidiol] | 2.7 | 8.6 | 0.99 | 4.2 | 16.5 | 0.5 | 5.5 | 
2 | CCCCCc1cc(O)c2c(c1)OC(C)(C)[C@@H]1CCC(C)=C[C@@H]21 [THC, Δ9-Tetrahydrocannabinol] | 6.14 |  | 0.56 | 6.55 | 10.9 | 2.4 | 9.4 | 33
